The values that follow are results of earlier work, collected in patent EP4360619A1, “DOSAGE FORM FOR INTRA-ARTICULAR INJECTION […] AN […] IN THE TREATMENT OF CRYSTAL-AND NON-CRYSTAL […] IN[…]” (PK MED, priority 2022, dated 2024).

Molecules are shown by their SMILES.

For this data set the following is noted: literature (E.Niel et al).

In the case of `COc1cc2c(c(OC)c1OC)-c1ccc(OC)c(=O)cc1[C@@H](NC(C)=O)CC2` [colchicine, N-[(7S)-1,2,3,10-tetramethoxy-9-oxo-6,7-dihydro-5H-benzo[a]heptalen-7-yl]acetamide], the lethal dose is on record as 0.8 mg/kg and the toxicity limit is 0.1 mg/kg.
